Like-named read-outs stand apart in the source and are kept apart here.

The subject of series [1] is L. (V.) braziliensis promastigotes, reference strain MHOM/BR/LTB300. Conditions: cited from earlier work; for active concentration in L. (L.) braziliensis: reference strain MHOM/BR/LTB300.
The subject of another series is J774.1 macrophages. As to the kind of experiment: Cytotoxicity (Alamar Blue) in macrophages. Type of series: cell-based, murine. The note with it: 72 h. How it is done: (§1) In flat-bottom 96-well culture plates, J774.1 macrophages were seeded at a cell density of 5 × 10^4 mL^−1 (10,000 macrophages/well) in 200 µL of RPMIc. After 24 h at 37 °C, 5% CO2, medium was replaced by 180 µL of RPMIc, without phenol red, and increasing concentrations of test compounds in 2-µL volumes. […] At least two independent experiments were performed in duplicate. Based on the inhibition of cell growth caused by the tested compounds, the percentage of growth inhibition compared to untreated cells was calculated. […] Selectivity indices (SI) were calculated, dividing the macrophage CC50 by the parasites GI50 (SI = CC50/GI50).
For orientation: Resazurin is reduced to fluorescent resorufin, in cell work by metabolically active cells.

In series [2] the test system is L. (L.) braziliensis MHOM/BR/LTB300. Details: method as in PMID 25240731. Conditions: cited from earlier work.
Series [3] concerns L. (L.) amazonensis LTB0016 promastigotes. As to the kind of experiment: Promastigote in vitro susceptibility (Alamar Blue/resazurin), reference strain. It is filed as cell-based, Leishmania amazonensis. Conditions: for growth inhibition / inhibition at 50 µM: LTB0016, 50 µM; for inhibition at 50 µM: read-out: growth inhibition. The method, then: The fluorometric method of Alamar Blue® (resazurin) was used. Promastigotes grown in biphasic agar-blood medium, at the exponential phase of growth, were seeded in flat-bottom 96-well culture plates, at a cell density of 1 × 10^6 parasites mL^−1 (200,000 parasites/well), in 180 µL of RPMIc without phenol red. Subsequently, either a sole concentration (50 µM), or increasing concentrations of compounds or drugs were applied, according to each treatment group, in volumes of 2 µL. Plates were kept at 26 °C, in a humid chamber, for 72 h. […] Live parasites are metabolically active and capable of reducing non-fluorescent resazurin (blue) to fluorescent resorufin (red). Fluorescence intensity is directly proportional to the number of viable cells. […] At least two independent experiments were performed in duplicate. The effect of trivalent antimonial [SbIII, potassium antimonyl tartrate trihydrate, Sigma-Aldrich, (St. Louis, MO, USA)] was included as positive control of the assay.

A short description of series [4]: Cytotoxicity (Alamar Blue) in macrophages. The note with it: mouse, J774.1 macrophages. It is filed as cell-based, murine. How it is done:
as §1

For series [5], the system named is L. (L.) amazonensis VE2000MM promastigotes. As to the kind of experiment: Promastigote in vitro susceptibility (Alamar Blue/resazurin), patient isolate VE2000MM. It is filed as cell-based, Leishmania amazonensis. How it is done:
(§2) The fluorometric method of Alamar Blue® (resazurin) was used. Promastigotes grown in biphasic agar-blood medium, at the exponential phase of growth, were seeded in flat-bottom 96-well culture plates, at a cell density of 1 × 10^6 parasites mL^−1 (200,000 parasites/well), in 180 µL of RPMIc without phenol red. Subsequently, either a sole concentration (50 µM), or increasing concentrations of compounds or drugs were applied, according to each treatment group, in volumes of 2 µL. Plates were kept at 26 °C, in a humid chamber, for 72 h. Resazurin was then added (20 µL of 10% v/v), to reach a final concentration of 250 µM and plates were incubated for an additional 4 h. Live parasites are metabolically active and capable of reducing non-fluorescent resazurin (blue) to fluorescent resorufin (red). Fluorescence intensity is directly proportional to the number of viable cells. The fluorometric reading was carried out using the appropriate wavelengths (ex: 540 nm/em: 580 nm) in a spectrofluorometer Victor^2 Wallac (Perkin Elmer, Turku, Finland). At least two independent experiments were performed in duplicate. The effect of trivalent antimonial [SbIII, potassium antimonyl tartrate trihydrate, Sigma-Aldrich, (St. Louis, MO, USA)] was included as positive control of the assay.

In series [6] the test system is L. (L.) amazonensis VE98MR promastigotes. In words: Promastigote in vitro susceptibility (Alamar Blue/resazurin), patient isolate VE98MR. Type of series: cell-based, Leishmania amazonensis. The method, then: as §2
The subject of series [7] is L. (L.) amazonensis LTB0016, VE98MR and VE2000MM promastigotes. As to the kind of experiment: Plasma membrane potential (ΔΨp), bisoxonol fluorescence. It is filed as cell-based, Leishmania amazonensis. The note with it: VE2000MM promastigotes; valinomycin 1 µM. The method, then:
To evaluate the plasma membrane potential (ΔΨp), the fluorescent compound, bisoxonol, bis[1,3-diethylthiobarbituric acid] trimethine oxonol, was used, as well as a method optimized by Padrón-Nieves et al.. Initially, calibration curves for each strain, using increasing concentrations of KCl (0.5 to 75 mM), were performed in the late log growth phase Leishmania promastigotes in the presence of the potassium ionophore valinomycin. By this procedure, fluorescence values could be transformed into millivolts (mV), applying the Nernst equation, ΔΨp = −59.4 log(120/[KCl]). […] After 10 min of incubation in the dark, fluorescence was measured in a Victor^2 Wallac spectrofluorometer (Perkin Elmer, Turku, Finland), using the appropriate wavelengths (ex: 540 nm/em: 580 nm). […] Once the corresponding calibration curve for each strain was obtained, the effect of compounds on the ΔΨp was evaluated. […] After 10 min of incubation in the dark, fluorescence was measured, using the appropriate wavelengths (ex: 540 nm/em: 580 nm). […] To transform the fluorescence values in millivolts (mV), calibration curves were prepared using increasing concentrations of KCl (0.5, 1.15, 2.5, 5, 10, 20, 40, and 75 mM). […]

Where [8] appears, read: LTB0016 promastigotes, 72 h, read-out: Promastigote (GI50) mean.
Setting [9] is: J774.1 CC50 / LTB0016 promastigote GI50.
[10] abbreviates: Leishmania amazonensis, LTB0016 promastigotes, 72 h, read-out: Promastigote (GI50) mean.

As usually defined, the GI50 is the concentration that inhibits growth by half. The CC50 is the concentration at which the toxic effect on the cells reaches its halfway point. Low readings indicate harm at low concentration, high ones better tolerance by the cells. For “3,28-diformylbetulin triazolodione [Compound 26]”, in series [1], the GI50 is less than 1 µM and the “active concentration in L. (L.) braziliensis” value (shortened to “active concentration”) is “less than 10 µM”. Moreover, in the series with J774.1 macrophages, it took 21.9 µM to reach half-maximal cytotoxicity (CC50). Further, the “inhibition of parasite migration” value in series [2] was “inhibited parasite migration at nano and picomolar concentrations”. In series [3], the “SI CC50/GI50” value is listed as 5.68 and the growth inhibition result is on record as “at least 75%”. Besides, the GI50 in series [3] (setting [8]) turned out to be 3.85 µM.

As a reminder, the inhibition is the change of the read-out against control, counted positive when it falls. In turn, `C=C(C)[C@@H]1CC[C@]2(CO)CC[C@]3(C)[C@H](CC[C@@H]4[C@@]5(C)CC[C@H](O)C(C)(C)[C@@H]5CC[C@]43C)[C@@H]12` [Compound 1, betulin] displayed a cytotoxic concentration (CC50) at 72 h in series [4] of 25.1 µM. Also, in series [3] (setting [9]), the “SI CC50/GI50” value is on record as 1.30. For the same compound, the inhibition at 50 µM in series [3] (Leishmania amazonensis) is no less than 75%. Besides, in series [3] (setting [10]), the GI50 turned out to be 19.3 µM.

For the compound `C=C(C)[C@@H]1CC[C@]2(C(=O)O)CC[C@]3(C)[C@H](CC[C@@H]4[C@@]5(C)CC[C@H](O)C(C)(C)[C@@H]5CC[C@]43C)[C@@H]12` [Compound 11, betulinic acid], in series [3] (Leishmania amazonensis), the inhibition at 50 µM was found to be 44%.

`C=C(C)[C@@H]1CC[C@]2(C=O)CC[C@]3(C)[C@H](CC[C@@H]4[C@@]5(C)CC[C@H](O)C(C)(C)[C@@H]5CC[C@]43C)[C@@H]12` [Compound 12, betulinic aldehyde]: in series [3], the growth inhibition is reported as 67%.

As to `C=C(C)[C@@H]1CC[C@]2(C(=O)O)CC[C@]3(C)[C@H](CC[C@@H]4[C@@]5(C)CC[C@H](O)C(C)(C)[C@@H]5CC[C@]43C)[C@@H]12` [Compound 13], the growth inhibition result in series [3] is “did not show enough anti-leishmanial activity”.

Turning to `C=C(C)[C@@H]1CC[C@]2(C(=O)O)CC[C@]3(C)[C@H](CC[C@@H]4[C@@]5(C)CCC(=O)C(C)(C)[C@@H]5CC[C@]43C)[C@@H]12` [Compound 14], the “active concentration” value in series [1] is “less than 10 µM”. Further, the growth inhibition entry in series [3] is recorded as “did not show enough anti-leishmanial activity”.

As for `C=C(C)C1CCC2(C=NO)CCC3(C)C(CCC4C5(C)CCC(O)C(C)(C)C5CCC43C)C12` (stereo not shown) [Compound 17], the “active concentration” value in series [1] was “less than 10 µM”. In the series on J774.1 macrophages, this compound yielded a CC50 of 19.3 µM. Besides, the “SI CC50/GI50” value in series [3] (setting [9]) stood at 14.23. Further, the growth inhibition entry in series [3] is “at least 75%”. In addition, the 50% growth inhibitory concentration (GI50) in series [3] (setting [8]) was 1.35 µM.

As to `[K+].[K+].[O]=[Cr](=[O])([O-])[O][Cr](=[O])(=[O])[O-]` [Compound K2Cr2O7, K2Cr2O7], the concentration for 50% growth inhibition (GI50) was greater than 2500 µM in series [5] (data not detailed in the manuscript, parasite stage not stated, read-out: GI50 against K2Cr2O7, VE2000MM); 1060 µM in series [3] (data not detailed in the manuscript, parasite stage not stated, read-out: GI50 against K2Cr2O7, LTB0016); greater than 2500 µM in series [6] (data not detailed in the manuscript, parasite stage not stated, read-out: GI50 against K2Cr2O7, VE98MR).

With `CCCCCCCCCCCCCCCCOP(=O)([O-])OCC[N+](C)(C)C` [MLF, miltefosine, reference compound], the GI50 was 5.13 µM in series [5] (Leishmania amazonensis, read-out: GI50 promastigotes VE2000MM) and 4.17 µM in series [3] (setting [10]).

With `O=NO` [NaNO2, sodium nitrite], the GI50 in series [5] (data not detailed in the manuscript, parasite stage not stated, read-out: GI50 against NaNO2, VE2000MM) was found to be 4.79 µM; in series [3] (data not detailed in the manuscript, parasite stage not stated, read-out: GI50 against NaNO2, LTB0016), 0.91 µM; in series [6] (data not detailed in the manuscript, parasite stage not stated, read-out: GI50 against NaNO2, VE98MR), 3.28 µM.

On to `N=C(N)c1ccc(OCCCCCOc2ccc(C(=N)N)cc2)cc1` [PNT, reference compound], for which, in series [3] (setting [8]), the GI50 is 0.93 µM.

Take `CC(C)[C@@H]1NC(=O)[C@H](C)OC(=O)[C@@H](C(C)C)NC(=O)[C@@H](C(C)C)OC(=O)[C@H](C(C)C)NC(=O)[C@H](C)OC(=O)[C@@H](C(C)C)NC(=O)[C@@H](C(C)C)OC(=O)[C@H](C(C)C)NC(=O)[C@H](C)OC(=O)[C@@H](C(C)C)NC(=O)[C@@H](C(C)C)OC1=O` [valinomycin, reference compound]: the “Effect on plasma membrane potential (ΔΨp), VE2000MM” value in series [7] was “not sensitive”.

“potassium antimonyl tartrate trihydrate [SbIII]”: the concentration for 50% growth inhibition (GI50) in series [5] (promastigotes, read-out: GI50 promastigotes VE2000MM) was 13.6 µM; in series [3] (setting [8]), 5.51 µM; in series [6] (promastigotes, read-out: GI50 promastigotes VE98MR), 9.08 µM.
